# Experimental data reported in a melting point compilation (Tetko et al.; mined from patent text by program, amines drawn as free bases though some values may be those of a salt).
# Residues, ends and D or L forms follow the SMILES beside them. *: point of attachment. Bz = O=C(c1ccccc1)*
row,SMILES,melting point [°C]
1,CN(c1ccc(Cl)cc1)S(=O)(=O)c1cn(S(=O)(=O)N(C)C)cn1,132
2,Cc1ccc(-c2ccc3c(c2)C=C(C(=O)O)CO3)cc1,236 to 237
3,CCCCc1nc2ccc(C3=NN4CCCC4C3)cc2c(=O)n1Cc1ccc(-c2ccccc2-c2nnn[nH]2)cc1 (stereo not given),126
4,O=C(O)COc1c(-c2cccc(Cl)c2)cc(C(=O)NCCCCCCCCc2ccccc2)cc1-c1cccc(Cl)c1,165 to 167
5,CSC1=NC(c2cccc([N+](=O)[O-])c2)C2=C(COC2=O)N1 (stereo not given),204 to 206
6,CC(=O)C(=Cc1cccc([N+](=O)[O-])c1)P1(=O)OCCCO1,144 to 146
7,CNC(=O)NS(=O)(=O)c1cc(CCNC(=O)/C=C/c2cccs2)ccc1OC,120
8,Cc1c(C(=O)O)oc2cc(OCCNC[C@H](O)COc3ccccc3)ccc12,110 to 111
9,COc1cc(C(Cl)(Cl)Cl)cc(OC)n1,71 to 73
10,O=C(CCCN1CCOCC1)c1ccc2c(c1)Cc1cc(C(=O)CCCN3CCOCC3)ccc1-2,166 to 168
11,CCCCCS(=O)(=O)NC(=O)/C=C/c1ccc(OCCOC)cc1Oc1ncc([N+](=O)[O-])cc1C,148 to 150
12,COc1ccc2c3c(ccc2c1)CC(=O)C3,138 to 140
13,CCOC(=O)C(=Cc1ccccc1)S(N)(=O)=O,88 to 89
14,C[C@H]1[C@@H](CO)CCN1c1ccc(C#N)c2sccc12,109 to 111
15,c1ccc2c(NCCN3CCOCC3)noc2c1,79 to 80
16,Cc1cccc(-c2nc3cccnn3c2-c2ccnc(NC(=O)c3ccc(Cl)cc3)c2)c1,211 to 212
17,O=C1NC(=O)C(c2ccc(Br)s2)O1 (stereo not given),139 to 140
18,CCCCCC1(C(=O)Nc2ccc(C(=O)O)cn2)CC2=C(C1)C(C)(C)CCC2(C)C,172 to 174
19,CC1CCC(c2ccc(Cl)c(C(F)(F)F)c2)=NN1S(=O)(=O)c1ccc(I)cc1 (stereo not given),157 to 158
20,CC(C)(CF)C(=O)C(Oc1ccc(Cl)cc1)n1cncn1 (stereo not given),60 to 63
21,CC(C)NC(=O)CCCCc1cc(O)c(O)c([N+](=O)[O-])c1,113 to 115
22,Nc1ccc(C(=O)Cn2c(-c3nonc3NCCC(=O)O)nc3ccccc32)cc1,174 to 177
23,COc1ccc(C=Cc2ccc(C)c(Cl)c2)c(Cl)c1,77 to 79
24,CN(Cc1ccc(F)cc1)C1CCN(c2ccc(C#N)cc2)CC1,100 to 101
25,COC(=O)C1=CCC2CC(=O)C12 (stereo not given),58 to 61

row,SMILES,melting point [°C]
1,c1ccc2c(c1)Oc1ccccc1C2NCc1ccncc1,83 to 85
2,CCN(CC)C(=O)Nc1ccc(S(=O)(=O)n2c(=O)n(C3CCCCC3)c3cc(Cl)ccc32)c(OC)c1,250
3,COc1ccc2c(c1)C(O)C(Cc1ccc(OC)c(OC3CC4CCC3C4)c1)CO2 (stereo not given),115 to 117
4,COc1cc(N)c(Cl)cc1C(=O)NCC1CCN(CCCCCC(=O)c2csc3ccccc23)CC1,130 to 132
5,Cc1cc(-c2nc(-c3c(F)cccc3Cl)nn2C)ccc1-c1ccc(OC(F)(F)F)cc1,117 to 122
6,FC(F)(F)c1nnc2c(Cl)nc3ccc(Cl)cc3n12,133 to 135
7,COc1ccc(C(=O)NNC(=O)c2ccccc2)cc1,201 to 202
8,NCC(COC(C(F)(F)F)(C(F)(F)F)C(F)(F)F)(COC(C(F)(F)F)(C(F)(F)F)C(F)(F)F)C(=O)O,182 to 184
9,NC(=O)OCC1COC(C(F)(F)F)(C(F)(F)F)O1 (stereo not given),52 to 54
10,CCC(CC)C(NS(=O)(=O)c1ccc(Cl)s1)C(C)O (stereo not given),95 to 98
11,COc1cc(CCCn2ccnc2)ccc1OCc1coc(-c2ccc(C)s2)n1,92 to 93
12,COc1cc(C(=O)O)cc(OC)c1CC(C)C,160 to 162
13,CCCCCCCCCCCCc1ccc(S(=O)(=O)Nc2nnc(CC(=O)O)s2)cc1,194 to 195
14,CC(=O)C1CNCc2c1[nH]c1cnc3ccccc3c21 (stereo not given),218 to 221
15,CCOC(=O)/C=C/c1c(-c2ccccc2)c2c3ccccc3ccn2c1C(C)C,145 to 146
16,"O=C(O)C1CC(c2ccccc2)=NN1C(=O)CP(=O)(O)CCCCc1ccccc1 (single isomer, unassigned; (+))",166 to 169
17,CCCNc1ccc2nc(NC(=O)c3ccc(C(C)(C)C)cc3)cn2n1,243 to 244
18,O=C(c1ccccc1)c1cnc2c(c1)CCC(c1ccc(Cl)c(Cl)c1)O2 (stereo not given),155 to 158
19,CCOC(=O)C(NC(C)=O)(C(=O)OCC)c1ccc(Cl)cn1,89 to 90
20,O=[N+]([O-])c1ccc2c(C3=CN4CCC3CC4)c[nH]c2c1,274 to 276
21,CC1=C(C2C=CN(C(=O)OCC(Cl)(Cl)Cl)N=C2)SCC(=O)N1 (stereo not given),156 to 157
22,COC(=O)c1ccccc1Oc1ccc(S(=O)(=O)NCc2ccnc3ccccc23)cc1,163 to 166
23,COC(=O)NC(=NS(=O)(=O)NC(C)C)OC(C)C,62 to 64
24,Cc1cc(O)ccc1C(=O)O,160 to 161
25,Nc1cc(C(F)(F)F)cc(N)c1Cl,96

row,SMILES,melting point [°C]
1,CC(C)N(CCCc1ccccc1)[C@H]1CC[C@H](c2ccc(O)cc2)CC1,146 to 154
2,COc1ccc(C2(CCO)CCN(C(=O)c3cc(OC)c(OC)c(OC)c3)C2)cc1OC (stereo not given),60 to 62
3,O=C1c2c(cc(O)c(O)c2[N+](=O)[O-])CC1CN1CCOCC1 (stereo not given),193 to 195
4,O=C1N=C(N2CCOCC2)SC1=Cc1cc(-c2ccc(O)c(C34CC5CC(CC(C5)C3)C4)c2)ccc1O,325 to 330
5,Cc1nc2ccc(Cl)cc2c(-c2ccc(F)cc2)c1CO,173 to 175
6,Cc1ccc([N+](=O)[O-])cc1Nc1nnn[nH]1,245 to 249
7,CC(=O)Nc1ccc(S(=O)(=O)NC23CC4CC(CC(C4)C2)C3)cc1,290
8,CCCCCCCCCCCCCC(=O)Nc1ccc(Cl)c(NC(=CC(=O)OCC)NNc2c(Cl)cc(Cl)cc2Cl)c1,91 to 93
9,Cc1cccc2nc(NC(=O)c3ccc(C4(C(=O)O)CCC4)cc3)cn12,272
10,CS(=O)(=O)OCCOc1ccccc1OCc1ccccc1,98 to 100
11,CN(C)Cc1cccc(-c2[nH]c3cccc4c3c2CCNC4=O)c1,222 to 225
12,CNc1c(F)cc2c(=O)c(C(=O)O)cn(-c3nc(N)c(F)cc3F)c2c1Br,205 to 208
13,O=C(O)CCCN1C(=O)c2ccc([N+](=O)[O-])cc2C1=O,176 to 178
14,CC(=Cc1ccc(Oc2cccnc2)cc1)C(=O)O,191 to 194
15,CC(C)Oc1cc(-c2cn(C)c(C(F)(F)F)cc2=O)c(F)cc1Cl,150 to 151
16,N#CCC1CCN(c2ccc(N3C[C@@H](Cn4cc(C#N)nn4)OC3=O)cc2F)CC1,200 to 202
17,O=c1c2c(CC3CCOCC3)n[nH]c2c2cccnc2n1-c1ccccc1,228 to 234
18,CC1=CC(OC(=O)c2ccc([N+](=O)[O-])cc2)C(O)C(C)(C)CC1=O (stereo not given),151 to 152
19,CCCCc1nc(Cl)c(CC(=O)O)c(Cc2ccc(-c3ccccc3C(=O)O)cc2)n1,100 to 110
20,O=C(C1=NN(CC(F)(F)F)C(=O)CN1)c1ccccc1,142 to 145
21,Cc1noc(NS(=O)(=O)c2ccc(C(C)C)cc2)c1Br,130 to 133
22,O=C(c1cccs1)c1cnn2c(-c3cccc(NCc4ccc(Cl)cc4)c3)ccnc12,149 to 152
23,COc1cc(C)cc(-c2nn(CC#N)cc2-c2cc(NC[C@H](C)O)nc(-c3cccnc3)n2)c1,200
24,CC(=O)N(O)CCOc1ccc(-c2ccc(C#N)cc2)cc1,174 to 175
25,Cc1ccc(C)c(OCc2ccccc2/C(=N\O)C(N)=O)c1,166 to 168

row,SMILES,melting point [°C]
1,COc1cc2c(Nc3ccc(Br)cc3F)ncnc2cc1OCCCSC,250 to 252
2,O=C1C=C(NC(=O)C(=O)c2cn(Cc3ccc(F)cc3)c3ccccc23)CO1,260 to 262
3,COC(=O)C(Cc1ccc(O)cc1)NC(=O)C(Cc1ccccc1)NC(=O)c1ccccc1 (stereo not drawn) (Bz-Phe-Tyr-OMe; configuration not given here),188 to 190
4,O=[N+]([O-])c1ccc(NS(=O)(=O)c2ccc(Cl)c(Cl)c2)c(Cl)c1,199 to 201
5,NS(=O)(=O)c1ccc(NN=C2C(=O)Nc3ccc(C(=O)NCc4ccco4)cc32)cc1,> 250
6,Nc1c2c(nc3ccccc13)CCCC2OCCBr (stereo not given),164
7,CC(=O)Nc1cc(Cl)c(C(C#N)c2ccc(Cl)c(C(F)(F)F)c2)c(Cl)c1 (stereo not given),172
8,COc1ccc(C(C#N)=NO)cc1,141
9,Cc1ccc2nc(-c3cccc(Cl)c3)oc(=O)c2c1,160 to 162
10,COC(=O)COc1cc2ccccc2c2c1c(C(=O)C(N)=O)c(C)n2CC1CCCCC1,156 to 158
11,COCCOc1ccc(CN)cc1O,89 to 90
12,CC(=O)NCCCc1nc2cnc3ccc(C)cc3c2n1C,213 to 215
13,N#Cc1cccc(C(Oc2ccccc2)Oc2ccccc2)n1,82 to 85
14,CC12CCCC=C1CCC1C2CCC2(C)C(O)CCC12 (stereo not given),144 to 147
15,Nc1ccc(C(=O)Nc2ccc(N)cc2Cl)cc1,194 to 197
16,Cn1nnc2sc(N)cc2c1=O,190 to 194
17,CCOC(=O)CC(C(=O)c1ccc(OC2CCN(C(=O)OC(C)(C)C)CC2)cc1)c1ccccn1 (stereo not given),118 to 120
18,COc1ccc(-c2nnc3c4ccccc4c(Nc4cccc(-c5nn[nH]n5)c4)nn23)cc1,305 to 308
19,FC(F)C(Cl)=NC(c1ccccc1)(c1ccccc1)c1ccccc1,154 to 156
20,CCOC(=O)c1cc(SC#N)c(-c2ccc(Cl)cc2)[nH]1,138 to 141
21,CN(C)C1(c2cccc(F)c2)CCC(CC(=O)NCCCc2ccccc2)CC1 (stereo not given),119 to 122
22,O=C1N[C@H](Cc2ccc(F)cc2)[C@H](c2ccc(F)cc2)O1 (racemic),197 to 198
23,c1ccc(NCc2nccc(-c3ccc(-c4ccc(N(c5ccccc5)c5ccccc5)cc4)cc3)n2)cc1,200 to 201
24,COCCOc1cnn(-c2nc3ccccc3c(=O)[nH]2)c1,119 to 124
25,O=C(O)CCC1(c2cccc(Cl)c2)NC(=O)NC1=O (stereo not given),196 to 217
